Reference: ChEMBL document CHEMBL1137279, “Synthesis of N1-arylidene-N2-quinolyl- and N2-acrydinylhydrazones as potent antimalarial agents active against CQ-resistant P. falciparum strains” (Bioorg Med Chem Lett, 2006)

Tests used:
[1] = Cytotoxicity against mouse WEHI cell line by MTT assay; assay type: cell-based; conditions: WEHI cells, read-out: ED50 (the source's name)
Plasmodium falciparum [2] = assay: Antimalarial activity against chloroquine-sensitive Plasmodium falciparum D10; assay type: functional, organism-based
Plasmodium falciparum [3] = assay: Antimalarial activity against chloroquine-sensitive Plasmodium falciparum 3D7; assay type: functional, organism-based
Plasmodium falciparum [4] = assay: Antimalarial activity against chloroquine-resistant Plasmodium falciparum W2; assay type: functional, organism-based
Plasmodium falciparum [5] = assay: Antimalarial activity against chloroquine-resistant Plasmodium falciparum K1; assay type: functional, organism-based

CCN(CC)CCCC(C)Nc1ccnc2cc(Cl)ccc12 (stereo not given) [CHLOROQUINE]
CC50 [1]: 9.7 µM

COc1cccc2c(N/N=C/c3ccccc3)ccnc12
IC50 (Plasmodium falciparum [2]): 0.519 µM | IC50 (Plasmodium falciparum [3]): 5.7 µM | IC50 (Plasmodium falciparum [4]): 0.254 µM

COc1ccc2nc3cc(Cl)ccc3c(N/N=C/c3ncc[nH]3)c2n1
IC50 (Plasmodium falciparum [2]): 0.072 µM | IC50 (Plasmodium falciparum [5]): 0.198 µM | IC50 (Plasmodium falciparum [3]): 0.283 µM | IC50 (Plasmodium falciparum [4]): 0.0269 µM

COc1ccc2nccc(N/N=C/c3ccc(N(C)C)cc3)c2c1
IC50 (Plasmodium falciparum [2]): 0.083 µM | IC50 (Plasmodium falciparum [4]): 0.104 µM

COc1ccc(/C=N/Nc2ccnc3cc4c(cc23)OCO4)cc1
IC50 (Plasmodium falciparum [2]): 0.21 µM | IC50 (Plasmodium falciparum [5]): 0.467 µM | IC50 (Plasmodium falciparum [3]): 0.155 µM | IC50 (Plasmodium falciparum [4]): 0.163 µM

COc1ccc2nc3cc(Cl)ccc3c(N/N=C/c3ccc(CN4CCCC4)cc3)c2c1
IC50 (Plasmodium falciparum [2]): 0.097 µM | IC50 (Plasmodium falciparum [3]): 0.112 µM | IC50 (Plasmodium falciparum [4]): 0.137 µM

COc1ccc(/C=N/Nc2ccnc3ccc(OC)cc23)cc1
IC50 (Plasmodium falciparum [2]): 0.099 µM | IC50 (Plasmodium falciparum [4]): 0.128 µM

Clc1ccc2c(N/N=C/c3ccc(CN4CCCC4)cc3)ccnc2c1
IC50 (Plasmodium falciparum [2]): 0.0288 µM | CC50 [1]: 19.4 µM | IC50 (Plasmodium falciparum [5]): 0.0164 µM | IC50 (Plasmodium falciparum [3]): 0.0191 µM | IC50 (Plasmodium falciparum [4]): 0.0583 µM

CCN(CC)Cc1ccc(/C=N/Nc2ccnc3ccc(OC)cc23)cc1
IC50 (Plasmodium falciparum [2]): 0.0392 µM | IC50 (Plasmodium falciparum [5]): 0.0551 µM | IC50 (Plasmodium falciparum [3]): 0.011 µM | IC50 (Plasmodium falciparum [4]): 0.079 µM

COc1ccc2nc3cc(Cl)ccc3c(N/N=C/c3ncc[nH]3)c2c1
IC50 (Plasmodium falciparum [2]): 0.0626 µM | CC50 [1]: 5.1 µM | IC50 (Plasmodium falciparum [5]): 0.0045 µM | IC50 (Plasmodium falciparum [3]): 0.001 µM | IC50 (Plasmodium falciparum [4]): 0.0308 µM

COc1cccc2c(N/N=C/c3ccc(N(C)C)cc3)ccnc12
IC50 (Plasmodium falciparum [2]): 0.337 µM | IC50 (Plasmodium falciparum [4]): 0.356 µM
